Test results taken from US6610665B1 (Smithkline Beecham Corporation, priority 1998, dated 2003).
Where a name gives a salt, the structure may show the parent alone.

What was measured:
Type in all cases: cell-based
Conditions in all cases: ratio to NECA
[1] = target: T1, adenosine 2a receptor (Homo sapiens, UniProt P29274); experiment: Agonist activity, CHO cells transfected with human adenosine receptor and CRE-SPAP reporter; basal cAMP (A2a)
T1 construct: expressed in transfected cells; host or cells: CHO cells
T1 sequence (P29274 whole entry): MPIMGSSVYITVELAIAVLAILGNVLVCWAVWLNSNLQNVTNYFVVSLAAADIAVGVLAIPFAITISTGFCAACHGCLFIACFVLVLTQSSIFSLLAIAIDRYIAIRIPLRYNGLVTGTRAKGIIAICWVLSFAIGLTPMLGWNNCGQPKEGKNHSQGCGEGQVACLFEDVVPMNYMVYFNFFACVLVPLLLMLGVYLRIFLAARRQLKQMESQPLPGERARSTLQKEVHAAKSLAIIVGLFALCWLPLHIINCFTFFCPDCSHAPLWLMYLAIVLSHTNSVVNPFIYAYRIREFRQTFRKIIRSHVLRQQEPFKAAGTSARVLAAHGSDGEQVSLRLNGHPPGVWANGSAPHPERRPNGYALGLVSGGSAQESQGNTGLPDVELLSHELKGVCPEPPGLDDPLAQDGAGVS
Procedure: (§1) (1) Agonist activity against adenosine 2a, adenosine 1 and adenosine 3 receptor subtypes.
(§2) Agonist selectivity of compounds against other human adenosine receptors is determined using Chinese hamster ovary (CHO) cells transfected with the gene for the relevant human adenosine receptor following a method based on that of Castanon and Spevak, 1994. The CHO cells are also transfected with cyclic AMP response elements promoting the gene for secreted placental alkaline phosphatase (SPAP) (Wood, 1995). The effect of test compounds may be determined by their effects on basal levels of CAMP (A2a) or on forskolin-enhanced cAMP (A1 and A3) as reflected by changes in levels of SPAP. EC50 values for compounds may then be determined as a ratio to that of the non-selective agonist N-ethyl carboxamide adenosine (NECA).

[2] = target: T2, adenosine 3 receptor (Homo sapiens, UniProt P0DMS8); experiment: Agonist activity, CHO cells transfected with human adenosine receptor and CRE-SPAP reporter; forskolin-enhanced cAMP (A3)
T2 construct: expressed in transfected cells; host or cells: CHO cells
T2 sequence (P0DMS8 1-318): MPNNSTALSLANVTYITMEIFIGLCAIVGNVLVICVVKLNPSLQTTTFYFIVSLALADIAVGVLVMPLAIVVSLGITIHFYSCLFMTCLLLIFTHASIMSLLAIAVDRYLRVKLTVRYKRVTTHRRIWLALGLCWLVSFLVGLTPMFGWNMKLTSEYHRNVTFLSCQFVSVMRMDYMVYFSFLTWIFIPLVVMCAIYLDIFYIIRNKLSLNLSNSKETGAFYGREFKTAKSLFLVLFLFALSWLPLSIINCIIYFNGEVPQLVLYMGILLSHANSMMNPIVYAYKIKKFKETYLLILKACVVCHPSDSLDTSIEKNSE
Procedure: as §1, §2

[3] = target: T3, adenosine 1 receptor (Homo sapiens, UniProt P30542); experiment: Agonist activity, CHO cells transfected with human adenosine receptor and CRE-SPAP reporter; forskolin-enhanced cAMP (A1)
T3 construct: expressed in transfected cells; host or cells: CHO cells
T3 sequence (P30542 1-326): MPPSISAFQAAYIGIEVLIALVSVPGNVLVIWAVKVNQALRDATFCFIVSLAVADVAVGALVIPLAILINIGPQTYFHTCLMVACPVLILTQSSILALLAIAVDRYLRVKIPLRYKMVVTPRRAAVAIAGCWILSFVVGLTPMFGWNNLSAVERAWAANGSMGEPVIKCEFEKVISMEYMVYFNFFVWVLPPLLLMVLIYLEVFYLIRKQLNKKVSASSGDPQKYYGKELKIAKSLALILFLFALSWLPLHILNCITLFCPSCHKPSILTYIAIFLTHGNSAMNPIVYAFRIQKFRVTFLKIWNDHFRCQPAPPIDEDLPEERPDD
Procedure: as §1, §2

[4] = * data are minimum values since preparation was found, after testing, to contain an inactive impurity

Compound	A2a, EC50 as a ratio of that of NECA [1, 4]	A3, EC50 as a ratio of that of NECA [2, 4]	A1, EC50 as a ratio of that of NECA [3, 4]	A2a, EC50 as a ratio of that of NECA ([1]; CHO cells, SPAP readout)	A3, EC50 as a ratio of that of NECA ([2]; CHO cells, SPAP readout)	A1, EC50 as a ratio of that of NECA ([3]; CHO cells, SPAP readout)
CCc1noc([C@H]2O[C@@H](n3cnc4c(NC(CC)CC)nc(NCCc5ccccn5)nc43)[C@H](O)[C@@H]2O)n1.O=CO [Example 21, (2S,3S,4R,5R)-2-(3-Ethyl-[1,2,4]oxadiazol-5-yl)-5-[6-(1-ethyl-propylamino)-2-(2-pyridin-2-yl-ethylamino)-purin-9-yl]-tetrahydro-furan-3,4-diol formate]	9.39	>303	>5090	–	–	–
CCCc1noc([C@H]2O[C@@H](n3cnc4c(NCC(c5ccccc5)c5ccccc5)nc(NCCc5cn(C)cn5)nc43)[C@H](O)[C@@H]2O)n1.O=CO [Example 33, (2R,3R,4S,5S)-2-{6-(2,2-Diphenyl-ethylamino)-2-[2-(1-methyl-1H-imidazol-4-yl)-ethylamino]-purin-9-yl}-5-(3-propyl-[1,2,4]oxadiazol-5-yl)-tetrahydro-furan-3,4-diol formate]	8.35	>259	≧815.9	–	–	–
CCc1noc([C@H]2O[C@@H](n3cnc4c(NC(CC)CC)nc(NCCN5CCOCC5)nc43)[C@H](O)[C@@H]2O)n1.O=CO [Example 19, (2S,3S,4R,5R)-2-(3-Ethyl-[1,2,4]oxadiazol-5-yl)-5-[6-(1-ethyl-propylamino)-2-(2-morpholin-4-yl-ethylamino)-purin-9-yl]-tetrahydro-furan-3,4-diol formate]	34.52	>694	>5860	–	–	–
CCC(CC)Nc1nc(NC2CCCC2)nc2c1ncn2[C@@H]1O[C@H](c2nc(C)no2)[C@@H](O)[C@H]1O.O=CO [Example 22]	–	–	–	22.25	>193	78.28
CCC(CC)Nc1nc(NCCc2cn(C)cn2)nc2c1ncn2[C@@H]1O[C@H](c2nc(C)no2)[C@@H](O)[C@H]1O.O=CO [Example 14, (2R,3R,4S,5S)-2-{6-(1-Ethyl-propylamino)-2-[2-(1-methyl-1H-imidazol-4-yl)-ethylamino]-purin-9-yl}-5-(3-methyl-[1,2,4]oxadiazol-5-yl)-tetrahydro-furan-3,4-diol formate]	–	–	–	0.66	>239	>4587
CCC(CC)Nc1nc(N[C@H]2CC[C@H](N)CC2)nc2c1ncn2[C@@H]1O[C@H](c2nc(C)no2)[C@@H](O)[C@H]1O.O=CO [Example 16, (2R,3R,4S,5S)-2-[2-(trans-4-Amino-cyclohexylamino)-6-(1-ethyl-propylamino)-purin-9-yl]-5-(3-methyl-[1,2,4]oxadiazol-5-yl)tetrahydro-furan-3,4-diol formate]	11.87	>362	>6244	–	–	–
CCc1noc(C2OC(n3cnc4c(NCC(c5ccccc5)c5ccccc5)nc(NC5CCN(Cc6ccccc6)C5)nc43)C(O)C2O)n1 [Example 45, (2R,3R,4S,5S)-2-[2-(1-Benzyl-pyrrolidin-3S-ylamino)-6-(2,2-diphenyl-ethylamino)-purin-9-yl]-5-(3-ethyl-[1,2,4]oxadiazol-5-yl)-tetrahydro-furan-3,4-diol diformate]	–	–	–	29.82	>165	>3738.84
CCc1noc([C@H]2O[C@@H](n3cnc4c(NCC(c5ccccc5)c5ccccc5)nc(NCCO)nc43)[C@H](O)[C@@H]2O)n1.O=CO [Example 43, (2R,3R,4S,5S)-2-[6-(2,2-Diphenyl-ethylamino)-2-(2-hydroxy-ethylamino)-purin-9-yl]-5-(3-ethyl-[1,2,4]oxadiazol-5-yl)-tetrahydro-furan-3,4-diol formate]	–	–	–	6.85	>130	1367.6
CCC(CC)Nc1nc(NC2CCNC2)nc2c1ncn2C1OC(c2nc(C)no2)C(O)C1O [Example 26, (2R,3R,4S,5S)-2-[6-(1-Ethyl-propylamino)-2-(pyrrolidin-3R-ylamino)-purin-9-yl]-5-(3-methyl-[1,2,4]oxadiazol-5-yl)-tetrahydro-furan-3,4-diol formate]	5.18	>284	>5264	–	–	–
(2S,3S,4R,5R)-2-(3-Cyclopropyl-[1,2,4]oxadiazol-5-yl)-5-[6-(1-ethyl-propylamino)-2-(2-(1-methyl-1H-imidazol-4-yl)-ethylamino)-purin-9-yl]-tetrahydro-furan-3,4-diol diformate [Example 38]	–	–	–	2.02	>87	670.04
CCc1noc(C2OC(n3cnc4c(NCC(c5ccccc5)c5ccccc5)nc(NC5CCNC5)nc43)C(O)C2O)n1 [Example 3, (2R,3R,4S,5S)-2-[6-(2,2-Diphenyl-ethylamino)-2-(pyrrolidin-3R-ylamino)-purin-9-yl]-5-(3-ethyl-[1,2,4]oxadiazol-5-yl)-tetrahydro-furan-3,4-diol formate]	4.63	>304	6719	–	–	–
CCc1noc(C2OC(n3cnc4c(NCCC(C)(C)C)nc(NCCc5cn(C)cn5)nc43)C(O)C2O)n1.O=CO.O=CO [Example 48, (2R,3R,4S,5S)-2-{6-(3,3-Dimethyl-butylamino)-2-[2-(1-methyl-1H-imidazol-4-yl)-ethylamino]-purin-9-yl}-5-(3-ethyl-[1,2,4]oxadiazol-5-yl)-tetrahydro-furan-3,4-diol diformate]	–	–	–	4.40	>165	16.84
Cc1noc(C2OC(n3cnc4c(N)nc(NCCc5ccccn5)nc43)C(O)C2O)n1.O=CO.O=CO (stereo not drawn) [Example 30]	19.54	>215	1460.7	–	–	–
